Data reported in ChEMBL document CHEMBL1124494, “Synthesis and biological evaluation of S-adenosyl-1,12-diamino-3-thio-9-azadodecane, a multisubstrate adduct inhibitor of spermine synthase” (J Med Chem, 1989).

Molecular target: T1, Spermidine synthase (Rattus norvegicus, UniProt Q99MI5)
T1 sequence (Q99MI5 whole entry): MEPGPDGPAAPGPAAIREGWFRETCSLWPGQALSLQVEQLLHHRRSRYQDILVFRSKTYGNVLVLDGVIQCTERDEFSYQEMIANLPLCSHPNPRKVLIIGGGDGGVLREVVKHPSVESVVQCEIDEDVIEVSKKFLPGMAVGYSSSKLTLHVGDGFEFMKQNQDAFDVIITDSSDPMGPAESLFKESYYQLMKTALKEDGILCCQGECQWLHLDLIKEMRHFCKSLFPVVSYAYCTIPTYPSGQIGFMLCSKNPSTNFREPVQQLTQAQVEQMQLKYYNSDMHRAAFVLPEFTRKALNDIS
Assay: Inhibition of spermidine synthase activity was evaluated
Conditions: read-out: I50

| IC50 | SMILES |
| --- | --- |
| > 500 µM | CCCCCC(CC)SC[C@H]1OC(n2cnc3c(N)ncnc32)[C@H](O)[C@@H]1O (stereo partly drawn) |
| > 500 µM | CCCNCCCCCC(CC)SC[C@H]1OC(n2cnc3c(N)ncnc32)[C@H](O)[C@@H]1O (stereo partly drawn) |
| > 13 µM | NCCCNCCCCCC(CCN)SC[C@H]1OC(n2cnc3c(N)ncnc32)[C@H](O)[C@@H]1O (stereo partly drawn) |
